Data published in ChEMBL document CHEMBL4270575, “Lead-like Drugs: A Perspective” (J Med Chem, 2018).

What was measured:
[1] = target: 3',5'-cyclic-AMP phosphodiesterase 4C (Homo sapiens, UniProt Q08493); assay: Inhibition of PDE4C1 (unknown origin)
[2] = target: 3',5'-cyclic-AMP phosphodiesterase 4A (Homo sapiens, UniProt P27815); assay: Inhibition of PDE4A1A (unknown origin)
[3] = target: T1, 3',5'-cyclic-AMP phosphodiesterase 4B (Homo sapiens, UniProt Q07343); assay: Inhibition of PDE4B1 (unknown origin)
[4] = target: 3',5'-cyclic-AMP phosphodiesterase 4D (Homo sapiens, UniProt Q08499); assay: Inhibition of PDE4D7 (unknown origin)
[5] = target: T1, 3',5'-cyclic-AMP phosphodiesterase 4B; assay: Inhibition of PDE4B2 (unknown origin)

Measured: IC50

T1 sequence (Q07343 whole entry): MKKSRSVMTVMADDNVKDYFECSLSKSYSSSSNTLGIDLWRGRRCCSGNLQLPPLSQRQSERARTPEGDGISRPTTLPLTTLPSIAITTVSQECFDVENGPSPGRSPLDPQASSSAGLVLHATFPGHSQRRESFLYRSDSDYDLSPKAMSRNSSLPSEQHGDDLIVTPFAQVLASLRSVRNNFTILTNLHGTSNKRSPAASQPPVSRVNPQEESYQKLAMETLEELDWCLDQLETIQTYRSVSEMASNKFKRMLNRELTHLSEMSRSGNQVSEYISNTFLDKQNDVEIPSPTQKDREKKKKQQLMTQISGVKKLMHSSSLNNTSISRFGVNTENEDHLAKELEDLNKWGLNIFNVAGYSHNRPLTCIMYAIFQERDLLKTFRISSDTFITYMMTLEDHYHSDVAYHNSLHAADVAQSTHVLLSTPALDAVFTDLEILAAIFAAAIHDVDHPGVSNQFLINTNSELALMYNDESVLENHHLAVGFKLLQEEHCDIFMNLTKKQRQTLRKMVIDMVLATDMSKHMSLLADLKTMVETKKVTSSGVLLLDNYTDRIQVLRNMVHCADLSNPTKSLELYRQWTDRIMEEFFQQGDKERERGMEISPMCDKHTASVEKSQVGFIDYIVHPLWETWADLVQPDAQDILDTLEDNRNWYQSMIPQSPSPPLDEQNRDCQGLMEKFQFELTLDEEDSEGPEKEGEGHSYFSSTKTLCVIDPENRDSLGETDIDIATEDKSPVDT
Chain of 3',5'-cyclic-AMP phosphodiesterase 4C (Q08493 whole entry): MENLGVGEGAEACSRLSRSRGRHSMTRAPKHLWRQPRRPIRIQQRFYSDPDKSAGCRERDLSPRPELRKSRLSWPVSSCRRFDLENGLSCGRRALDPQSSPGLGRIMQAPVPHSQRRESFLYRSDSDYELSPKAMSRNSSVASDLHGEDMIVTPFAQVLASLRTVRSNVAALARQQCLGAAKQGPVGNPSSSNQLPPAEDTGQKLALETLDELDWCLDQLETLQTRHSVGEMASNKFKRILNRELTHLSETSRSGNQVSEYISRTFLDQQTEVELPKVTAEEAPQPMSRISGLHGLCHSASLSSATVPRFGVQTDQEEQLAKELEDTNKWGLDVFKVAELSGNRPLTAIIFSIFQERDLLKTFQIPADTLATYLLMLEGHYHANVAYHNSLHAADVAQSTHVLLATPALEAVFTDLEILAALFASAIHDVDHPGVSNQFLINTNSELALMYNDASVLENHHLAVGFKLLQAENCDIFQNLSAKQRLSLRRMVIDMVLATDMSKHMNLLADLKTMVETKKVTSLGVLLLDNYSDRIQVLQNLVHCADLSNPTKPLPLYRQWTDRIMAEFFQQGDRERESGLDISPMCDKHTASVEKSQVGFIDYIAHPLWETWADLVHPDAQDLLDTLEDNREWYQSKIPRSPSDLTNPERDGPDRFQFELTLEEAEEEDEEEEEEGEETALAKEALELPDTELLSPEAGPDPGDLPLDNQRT
Chain of 3',5'-cyclic-AMP phosphodiesterase 4A (P27815 whole entry): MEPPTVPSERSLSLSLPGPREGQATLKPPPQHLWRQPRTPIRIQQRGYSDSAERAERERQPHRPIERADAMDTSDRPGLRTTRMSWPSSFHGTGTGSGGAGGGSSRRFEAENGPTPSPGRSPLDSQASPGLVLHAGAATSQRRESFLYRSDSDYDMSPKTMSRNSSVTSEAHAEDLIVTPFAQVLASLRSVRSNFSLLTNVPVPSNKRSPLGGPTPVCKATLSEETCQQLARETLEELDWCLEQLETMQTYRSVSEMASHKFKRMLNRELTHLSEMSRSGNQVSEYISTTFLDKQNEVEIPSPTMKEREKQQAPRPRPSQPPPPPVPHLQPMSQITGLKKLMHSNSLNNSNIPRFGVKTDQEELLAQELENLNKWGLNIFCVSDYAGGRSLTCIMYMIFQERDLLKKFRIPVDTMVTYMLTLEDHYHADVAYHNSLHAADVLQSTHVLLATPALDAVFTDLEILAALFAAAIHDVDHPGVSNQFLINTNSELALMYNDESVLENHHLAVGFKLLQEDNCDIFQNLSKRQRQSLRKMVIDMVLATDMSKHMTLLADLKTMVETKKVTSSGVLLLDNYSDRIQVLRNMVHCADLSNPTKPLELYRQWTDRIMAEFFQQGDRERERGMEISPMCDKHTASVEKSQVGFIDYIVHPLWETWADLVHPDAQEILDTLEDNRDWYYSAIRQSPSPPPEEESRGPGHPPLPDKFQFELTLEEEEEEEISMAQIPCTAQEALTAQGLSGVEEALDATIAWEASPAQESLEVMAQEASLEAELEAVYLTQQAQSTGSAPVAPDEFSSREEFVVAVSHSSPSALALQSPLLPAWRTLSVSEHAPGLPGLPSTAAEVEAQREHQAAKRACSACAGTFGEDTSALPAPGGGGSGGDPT
Chain of 3',5'-cyclic-AMP phosphodiesterase 4D (Q08499 whole entry): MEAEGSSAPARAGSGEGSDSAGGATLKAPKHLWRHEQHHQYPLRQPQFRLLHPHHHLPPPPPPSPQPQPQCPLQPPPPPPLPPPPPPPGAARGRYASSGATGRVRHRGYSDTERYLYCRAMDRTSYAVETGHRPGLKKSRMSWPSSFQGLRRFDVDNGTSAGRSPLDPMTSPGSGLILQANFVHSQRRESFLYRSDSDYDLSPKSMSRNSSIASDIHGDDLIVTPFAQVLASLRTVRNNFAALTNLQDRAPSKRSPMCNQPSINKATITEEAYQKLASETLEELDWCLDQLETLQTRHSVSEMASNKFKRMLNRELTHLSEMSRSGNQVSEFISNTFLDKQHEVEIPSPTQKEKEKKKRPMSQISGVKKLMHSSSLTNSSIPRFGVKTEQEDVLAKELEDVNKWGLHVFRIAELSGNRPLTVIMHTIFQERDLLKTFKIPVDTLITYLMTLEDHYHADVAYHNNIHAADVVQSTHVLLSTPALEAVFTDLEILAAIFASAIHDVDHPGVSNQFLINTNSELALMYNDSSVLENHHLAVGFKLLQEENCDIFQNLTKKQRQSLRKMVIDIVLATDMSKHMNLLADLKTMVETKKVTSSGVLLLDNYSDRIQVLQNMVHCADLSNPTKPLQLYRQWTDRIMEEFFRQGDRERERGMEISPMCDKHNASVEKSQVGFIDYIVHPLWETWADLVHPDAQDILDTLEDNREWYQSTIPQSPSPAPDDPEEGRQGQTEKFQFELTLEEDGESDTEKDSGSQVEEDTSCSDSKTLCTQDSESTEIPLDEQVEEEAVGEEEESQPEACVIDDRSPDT

N#Cc1ccc(Oc2ccc3c(c2)COB3O)cc1 [CRISABOROLE]
0.055 to 0.34 µM: all assays above
